Data set [1] deals with ANGPTL2. Particulars: ASO.
In data set [2] the target is KRAS. Particulars: ASO.

“And” between values parts separate entries of the source, which are not always exact repeats. Identical values can stand only once. After the bases stand the sugars from the 5' end (letter, count) and the backbone: PS all phosphorothioate, else s phosphorothioate and o phosphodiester by linkage. Methylation of C is not given here. e = 2'-O-(2-methoxyethyl) (MOE); l = locked nucleic acid (LNA); k = constrained ethyl (cEt); d = 2'-deoxy (DNA)

Turning to “AAGAAGTTAACAGAGCCATC (sugars l1 d15 l4, PS)”, the target mRNA inhibition in data set [1] (5 µM) was 42.1%; in data set [1] (25 µM), 45.8%.

In the case of “AAGAGAGAAGGCAGTGAGAG (sugars l2 d16 l2, PS)”, the figures for the target mRNA inhibition in data set [1] (5 µM) and in data set [1] (25 µM) were 24.8% and 10.9%, respectively.

Consider “AAGTTGATAGTTTATCTC (sugars l4 d11 l3, PS)”, for which the target mRNA inhibition came to 91.6% in data set [1] (5 µM) and 91.4% in data set [1] (25 µM).

As for “ACCCTCCATCCTTCACC (sugars l2 d13 l2, PS)”, the target mRNA inhibition stood at 34.7% in data set [1] (5 µM) and 54.5% in data set [1] (25 µM). For “ACCCTCCATCCTTCACC (sugars l3 d12 l2, PS)”, in that order: 38.9% and 44%. With “ACCCTCCATCCTTCACC (sugars l4 d11 l2, PS)”, the target mRNA inhibition in data set [1] (5 µM) is 36.5%; in data set [1] (25 µM), 52.7%. Turning to CATGCTGTGAAACTCT (sugars k3 d10 k3, PS), in data set [2] (A431, 2 µM), the target mRNA inhibition is 8%.

The sequence CATTTCTGATGTGACT (sugars k3 d10 k3, PS) registered a target mRNA inhibition in data set [2] (A431, 2 µM) of 32%. “CCAGTGATACTTTCAC (sugars kkddddddddkekekk, PS)” came in with a target mRNA inhibition in data set [2] (A431, 2 µM) of 17%. Turning to “CCAGTGTTAAGAGAAC (sugars kkddddddddddkeke, PS)”, the target mRNA inhibition in data set [2] (A431, 2 µM) was 42%.

Sequence CCATGCTGTGAAACTC (sugars k3 d10 k3, PS) displayed a target mRNA inhibition in data set [2] (A431, 2 µM) of 26%. Same read-out and setting: the same measure for “CCATTCAAAGTTCACA (sugars k3 d9 k3 e1, PS)”: 41%; for CCATTCAAAGTTCACA (sugars k3 d10 k3, PS): 42%. The same measure, in the same setting: the same measure for “CCATTTATGTGACTAG (sugars kkddddddddkekekk, PS)”: 0%; for “CCATTTATGTGACTAG (sugars kkkddddddddkekek, PS)”: 36%; for CTATTAGGAGTCTTTA (sugars k3 d10 k3, PS): 34%. The same measure, in the same setting: next, CTCTATGAAAGCTCAA (sugars k3 d10 k3, PS): 39%.

The sequence CTTGAAAAGTGTTTAT (sugars k3 d10 k3, PS) returned a target mRNA inhibition in data set [2] (A431, 2 µM) of 0%.

Take “CTTGATTTGTCAGCAG (sugars kkkddddddddkdkdk, PS)”: in data set [2] (A431, 2 µM), the target mRNA inhibition came out at 33%.

Turning to CTTTTTGACAAATGGA (sugars k3 d10 k3, PS), the target mRNA inhibition in data set [2] (A431, 2 µM) amounted to 22%. GATGGTGTAACATAGG (sugars k3 d10 k3, PS): the target mRNA inhibition came out at 8% in data set [2] (A431, 0.185 µM); 30% in data set [2] (A431, 0.556 µM); 56% in data set [2] (A431, 1.667 µM); 60% in data set [2] (A431, 2 µM); 68% in data set [2] (A431, 5 µM).

With “GATTGTGCTGAGCTTG (sugars kkdddddddddkekek, PS)”, the target mRNA inhibition in data set [2] (A431, 2 µM) stood at 45%. Still for that read-out and setting: the same measure for “GATTGTGCTGAGCTTG (sugars kkddddddddkekekk, PS)”: 14%; for “GATTTGTCAGCAGGAC (sugars kkddddddddkekekk, PS)”: 0%.

In the case of GCTCTTGATTTGTCAG (sugars k3 d10 k3, PS), the target mRNA inhibition in data set [2] (A431, 2 µM) is 23%. For “GGAGTCTTTATAGTAA (sugars kkddddddddddkeke, PS)”, the target mRNA inhibition was 27% in data set [2] (A431, 0.185 µM); 45% in data set [2] (A431, 0.556 µM); 57% in data set [2] (A431, 1.667 µM); 55% in data set [2] (A431, 2 µM); 82% in data set [2] (A431, 5 µM). For “GGAGTCTTTATAGTAA (sugars kkddddddddkekekk, PS)”, the target mRNA inhibition in data set [2] (A431, 2 µM) stood at 25%. The sequence GGCAAGATGACACTAA (sugars k3 d10 k3, PS) showed a target mRNA inhibition in data set [2] (A431, 2 µM) of 30%. Still for that read-out and setting: the same measure for GGGAATTACAAGTATT (sugars k3 d10 k3, PS): 28%; for GGTAAAAGCTAACAGT (sugars k3 d10 k3, PS): 49%.

Take GGTGTAACATAGGTTA (sugars k3 d10 k3, PS): the target mRNA inhibition in data set [2] (A431, 0.185 µM) was 7%; in data set [2] (A431, 0.556 µM) it was 29%; in data set [2] (A431, 1.667 µM), 47%; in data set [2] (A431, 2 µM), 55% and 50%; in data set [2] (A431, 5 µM), 67%.

As to GTAAAAGCTAACAGTC (sugars k3 d10 k3, PS), the target mRNA inhibition in data set [2] (A431, 2 µM) is 21%. Still for that read-out and setting: the same measure for “GTCCAGTGATACTTTC (sugars k3 d9 k3 e1, PS)”: 48%; for “GTCCAGTGATACTTTC (sugars kddddddddddkekek, PS)”: 36%; for “GTCCAGTGATACTTTC (sugars kkddddddddkekekk, PS)”: 22%. The same measure, in the same setting: the same measure for GTGCAATGGTGACAAC (sugars k3 d10 k3, PS): 38%; for “GTGTGACTCAGTTAAA (sugars kddddddddddkekek, PS)”: 30%. Still for that read-out and setting: the same measure for “GTGTGACTCAGTTAAA (sugars kdddddddddkekeke, PS)”: 25%; for “GTGTTTATGCAATGTT (sugars kddddddddddkekek, PS)”: 53%; for “GTGTTTATGCAATGTT (sugars kdddddddddkekeke, PS)”: 41%. As to “GTGTTTATGCAATGTT (sugars kkkddddddddkdkdk, PS)”, the target mRNA inhibition in data set [2] (A431, 0.125 µM) was 70% and 58%; in data set [2] (A431, 0.185 µM) it was 27%; in data set [2] (A431, 0.556 µM) it was 47%; in data set [2] (A431, 1.667 µM), 73%; in data set [2] (A431, 5 µM), 81%. The sequence “GTTTATGCAATGTTAA (sugars kddddddddddkekek, PS)” registered a target mRNA inhibition in data set [2] (A431, 2 µM) of 37%.

With “GTTTATGCAATGTTAA (sugars kkddddddddkekekk, PS)”, the target mRNA inhibition in data set [2] (A431, 0.185 µM) amounted to 27%; in data set [2] (A431, 0.556 µM), 46%; in data set [2] (A431, 1.667 µM) it was 45%; in data set [2] (A431, 2 µM), 57%; in data set [2] (A431, 5 µM) it was 79%. Take TAATCCATTTATGTGA (sugars k3 d10 k3, PS): the target mRNA inhibition in data set [2] (A431, 2 µM) worked out at 31%.

In the case of TAATGTCACAAGCAGA (sugars k3 d10 k3, PS), in data set [2] (A431, 2 µM), the target mRNA inhibition was determined as 52%. TAGGAGTCTTTATAGT (sugars k3 d10 k3, PS): in data set [2] (A431, 2 µM), the target mRNA inhibition came to 41%. Sequence “TAGTGATTAGGTCAAA (sugars kkdddddddddkdkdk, PS)” came in with a target mRNA inhibition in data set [2] (A431, 2 µM) of 25%. Still for that read-out and setting: next, TATAATAATCCCCATT (sugars k3 d10 k3, PS): 7%; TCAAAGTTCACATAAA (sugars k3 d10 k3, PS): 19%. Still for that read-out and setting: the same measure for TCATTGTTTAAAAAAA (sugars k3 d10 k3, PS): 0%. On the same count and under the same terms, the same measure for “TCCAGTGATACTTTCA (sugars kkddddddddddkeke, PS)”: 39%; for “TCCATTTATGTGACTA (sugars kddddddddddkekek, PS)”: 38%; for “TCCATTTATGTGACTA (sugars kkkddddddddkdkdk, PS)”: 16%.

In data set [2] (A431, 2 µM), “TCCATTTATGTGACTA (sugars kkkddddddddkekek, PS)” displayed a target mRNA inhibition of 0%.

Turning to TCTGAATTAGTCTCCA (sugars k3 d10 k3, PS), the target mRNA inhibition in data set [2] (A431, 0.185 µM) is 0%; in data set [2] (A431, 0.556 µM), 26%; in data set [2] (A431, 1.667 µM), 48%; in data set [2] (A431, 2 µM) it was 62% and 50%; in data set [2] (A431, 5 µM) it was 68%. Regarding TCTTGTTGAGCTATCC (sugars k3 d10 k3, PS), the target mRNA inhibition in data set [2] (A431, 0.185 µM) is 28% and 3%; in data set [2] (A431, 0.556 µM) it was 38% and 29%; in data set [2] (A431, 1.667 µM), 61% and 40%; in data set [2] (A431, 2 µM), 56%; in data set [2] (A431, 5 µM) it was 82% and 64%. Turning to TCTTTTAATGTCACAA (sugars k3 d10 k3, PS), the target mRNA inhibition in data set [2] (A431, 2 µM) was determined as 46%.

In data set [2] (A431, 2 µM), TGAAAAGTGTTTATGC (sugars k3 d10 k3, PS) came in with a target mRNA inhibition of 40%. The same measure, in the same setting: the same measure for “TGATTTGTCAGCAGGA (sugars kkkddddddddkekek, PS)”: 41%; for TGCAATGTTAATTTAA (sugars k3 d10 k3, PS): 13%; for TGCTATAATAATCCCC (sugars k3 d10 k3, PS): 43%.

Turning to “TGCTGTGAAACTCTCT (sugars kkddddddddddkeke, PS)”, the target mRNA inhibition in data set [2] (A431, 2 µM) is 30%. On to “TGCTGTGAAACTCTCT (sugars kkdddddddddkekek, PS)”, for which, in data set [2] (A431, 2 µM), the target mRNA inhibition amounted to 0%.

On to “TGCTGTGAAACTCTCT (sugars kkddddddddkekekk, PS)”, for which the target mRNA inhibition in data set [2] (A431, 2 µM) turned out to be 5%.

In the case of TGTGCAATGGTGACAA (sugars k3 d10 k3, PS), the target mRNA inhibition in data set [2] (A431, 2 µM) was 28%. On the same count and under the same terms, next, TGTTTAAAAAAAAAAT (sugars k3 d10 k3, PS): 2%.

Take TGTTTATGCAATGTTA (sugars k3 d10 k3, PS): the target mRNA inhibition was 49% and 53% in data set [2] (A431, 0.125 µM); 21% and 0% in data set [2] (A431, 0.185 µM); 40% and 27% in data set [2] (A431, 0.556 µM); 53% in data set [2] (A431, 1.667 µM); 79% and 68% in data set [2] (A431, 5 µM); 41% in data set [2] (NCI-H460, 0.037 µM).

As for “TGTTTATGCAATGTTA (sugars kkddddddddddkeke, PS)”, the target mRNA inhibition in data set [2] (A431, 2 µM) turned out to be 23%.

In data set [2] (A431, 2 µM), “TGTTTATGCAATGTTA (sugars kkdddddddddkdkdk, PS)” came in with a target mRNA inhibition of 46%. Same read-out and setting: next, TTAAAAAAAAAATTAA (sugars k3 d10 k3, PS): 0%. Still for that read-out and setting: next, TTAATTACTTATGCAG (sugars k3 d10 k3, PS): 32%; TTACTTATGCAGAGAA (sugars k3 d10 k3, PS): 46%; “TTAGTGATTAGGTCAA (sugars k3 d9 k3 e1, PS)”: 53%.

For the sequence TTATGCAATGTTAATT (sugars k3 d10 k3, PS), in data set [2] (A431, 2 µM), the target mRNA inhibition stood at 3%. Same read-out and setting: next, “TTGATTTGTCAGCAGG (sugars kkdddddddddkekek, PS)”: 23% and 22%. Still for that read-out and setting: the same measure for TTGTATCTTGTTGAGC (sugars k3 d10 k3, PS): 50%; for TTGTGCAATGGTGACA (sugars k3 d10 k3, PS): 29%.
